We go through four compounds from patent publication US20130071330A1, “METHODS OF IDENTIFYING AGENTS EFFECTIVE TO TREAT COGNITIVE DECLINE AND DISEASES ASSOCIATED THEREWITH” (priority 2010, published 2013).

For series [1], the system named is Abeta assemblies isolated from patients, membrane trafficking. In words: Membrane trafficking assay with Abeta assemblies isolated from AD or normal patients. Format: cell-based, rat. Particulars: FIG. 4. The protocol: (§1) MTT assay Primary neurons from E18 Sprague-Dawley rat embryos were plated at optimized concentrations in 384 well plates in NB media (Invitrogen). Neurons were maintained in cultures for 3 weeks, with twice weekly feeding of NB media with N2 supplement (Invitrogen). Vehicle or Abeta oligomer preparations (1.5 uM), followed by compounds were added to cells and incubated for 1 to 24 hr at 37° C. in 5% CO2. MTT reagent (3-(4,5-dimethylthizaol-2-yl)-2,5diphenyl tetrazolium bromide) reagent (Roche Molecular Biochemicals) was reconstituted in phosphate buffered saline to 5 mg/ml. 10 ul of MTT labeling reagent was added to each well and incubated at 37° C. for 1 h, then imaged.
Abeta assemblies were isolated from patients with Alzheimer's Disease (AD) or from normal patients. The Abeta assemblies were tested for their ability to modulate membrane trafficking. […] The assay was performed as described herein.

The subject of series [2] is Abeta oligomer effects on membrane trafficking. In words: MTT membrane trafficking (formazan exocytosis) assay with Abeta oligomers in mature primary neurons. In kind it is cell-based, rat. Particulars: for block of Abeta oligomer-caused decrease of intracellular formazan-filled vesicles (puncta): neurons 3 weeks in vitro, for antibody stoichiometric amount (3 μM Aβ, 1.5 μM IgG), added prior to oligomers. As for the experimental part: as §1
Each assay plate was formatted so that compounds were tested with and without Abeta on each plate.
Experimental controls: Abeta 1-42 oligomers were made and used as positive controls. The oligomers can be made by any method, such as published methods (Dhalgren et al., '02, LeVine '04, Shrestha et al., '06, Puzzo et al., '05, Barghorn et al., '05, Johansson et al., '06). […] Negative controls included vehicle-treated neurons as well as neurons treated with Compound Z. These controls, on each plate, serve as normalization tools to calibrate assay performance on a plate-by-plate basis.
Statistical software and Analysis: Data handling and analysis was accomplished by Cellomics VTI image analysis software and STORE automated database software. Statistical comparisons were made via pairwise Tukey-Kramer analysis to determine the significance of the separation between compound+Abeta oligomers from Abeta alone, and between compound alone from vehicle. […] Power analysis was set for a number of replicate screening wells that will minimize false negatives such as N=4. Rank ordering of compounds was done on the basis of secondary assay mechanism of action and physicochemical properties of the hit structures.
Abeta 1-42 oligomers made according to published methods (Dhalgren et al., '02, LeVine '04, Shrestha et al., '06, Puzzo et al., '05, Barghorn et al., '05, Johansson et al., '06) or isolated from human brain tissue (Walsh et al., '02, Lesne et al., '06, Shankar et al '08) served as positive controls. Toxicity was monitored in each image-based assay via quantification of nuclear morphology visualized with the DNA binding dye DAPI (Invitrogen). Nuclei that were fragmented were considered to be in late stage apoptosis (Majno and Joris '95). Peptide lots producing unusual peptide size ranges or significant toxicity at standard concentrations on neurons were rejected.
Image Processing: Images are captured and analyzed with the Cellomics VTI automated microscope platform. For statistical analysis, a Tukey-Kramer pair-wise comparison with unequal variance is used.
Primary rat neurons grown for at least 3 weeks in vitro were chosen as the basis for this screening assay. […] More complex systems such as acute or organotypic brain slices are very useful but not amenable to high throughput screening. […] For this reason, primary neuronal cultures were chosen because of their ability to be used in high throughput screens and fidelity to what occurs in vivo.
The exocytosis assay was adapted for use with mature primary neuronal cultures grown for 3 weeks in vitro.

A further series relates to mice. In words: Fear conditioning assay (Abeta oligomer-induced memory deficit). Format: in vivo. From the text: The formation of contextual memories is dependent upon the integrity of medial temporal lobe structures such as the hippocampus. […] Animals that show good learning will express an increase in freezing behavior when placed back into the same context. This freezing is absent in a novel context.

The structures appear in SMILES notation. Entries after “also recorded” stand apart in the source; their conditions may differ.

Consider `COc1cc(CCC(C)NCc2ccc(C(F)(F)F)cc2)ccc1O` (centres unmarked) [Compound Z], for which the “effect on Abeta assemblies isolated from age-matched normal individuals” value in series [1] (Abeta assemblies from age-matched normal individuals) is “no effect”. Moreover, the “block of trafficking effects of AD-brain derived Abeta assemblies” value in series [1] (IMW (10-100 KDa) Abeta assemblies isolated from AD patients) is “significantly blocked”. The EC50 in series [2] (Neuron, read-out: inhibits oligomer effects on membrane trafficking, EC50, primary rat neurons, Abeta oligomers, FIG. 2B) stood at 7 µM. Also, the “block of Abeta oligomer-caused decrease of intracellular formazan-filled vesicles (puncta)” value in series [2] is recorded as “inhibits oligomer effects on membrane trafficking; also recorded: effective at stopping Abeta oligomer mediated effects on membrane trafficking”. In the series with mice (2 pmol dose, given prior to Abeta (200 nM), tested about 24 hours after training, p<0.05), the “block of oligomer-mediated memory deficits (contextual fear conditioning)” value was “completely blocked”. Besides, the “block of oligomer effects on memory, dose dependence” value in the series with mice (administered prior to Abeta oligomer administration) was “blocked oligomer effects on memory in a dose-dependent manner”. Moreover, the adverse behavioral changes result with mice (any dose) is reported as “No adverse behavioral changes were observed”. For the same compound, in the series with mice (without Abeta, data not shown), the “effect of compound alone on memory” value is given as “No effect”.
Regarding `C[C@]12N[C@H](Cc3ccccc31)c1ccccc12` [MK-801, reference compound], the “block of Abeta oligomer-caused decrease of intracellular formazan-filled vesicles (puncta)” value in series [2] is “none were active”.
In the case of `C[N+](C)(C)CCCCCC[N+](C)(C)C` [hexamethonium bromide, reference compound], in series [2], the “block of Abeta oligomer-caused decrease of intracellular formazan-filled vesicles (puncta)” value is given as “none were active”.
For `O[C@H]1[C@H](O)[C@@H](O)[C@H](O)[C@@H](O)[C@@H]1O` [scyllo-inositol, reference compound], the “block of Abeta oligomer-caused decrease of intracellular formazan-filled vesicles (puncta)” value in series [2] was “none were active”.
